Reference: ChEMBL document CHEMBL3046330, “Synthesis and biological activity of hydrazidehydrazones and their corresponding 3-acetyl-2,5-disubstituted-2,3-dihydro-1,3,4-oxadiazoles” (Med Chem Res, 2012)
Converted amounts (≈) assume the structure as drawn. The source made the active and inactive calls. No cut-off for these calls is given here.

Key:
[1] = target: Transcription factor Sp1 (Homo sapiens, UniProt P08047); test: Inhibition of Sp1 (unknown origin) up to 25 ug/ml by luciferase reporter gene assay
[2] = tested on: SK-OV-3; test: Cytotoxicity against Homo sapiens (human) SKOV3 cells assessed as cell viability up to 25 ug/ml after 48 hr by neutral red assay; assay type: functional, cell-based
[3] = tested on: SW1353; test: Inhibition of PMA-induced NFkappaB activity in Homo sapiens (human) SW1353 cells up to 25 ug/ml incubated for 30 min followed by PMA induction for 8 hr by luciferase reporter gene assay; assay type: cell-based
[4] = tested on: KB; test: Cytotoxicity against Homo sapiens (human) KB cells assessed as cell viability up to 25 ug/ml after 48 hr by neutral red assay; assay type: functional, cell-based
[5] = tested on: BT-549; test: Cytotoxicity against Homo sapiens (human) BT549 cells assessed as cell viability up to 25 ug/ml after 48 hr by neutral red assay; assay type: functional, cell-based
[6] = tested on: Candida albicans; test: Antifungal activity against Candida albicans ATCC 90028 after 24 hr by NCCLS broth microdilution method; assay type: functional; details: ATCC 90028, 24 h
[7] = tested on: Vero; test: Cytotoxicity against Chlorocebus aethiops (African green monkey) Vero cells assessed as cell viability up to 25 ug/ml after 48 hr by neutral red assay; assay type: cell-based; details: chlorocebus sabaeus
[8] = tested on: Candida albicans; test: Antifungal activity against Candida albicans clinical isolate at 2000 ug/ml by agar diffusion method; assay type: functional; details: read-out: IZ
[9] = target: T1, Nitric oxide synthase, inducible (Mus musculus) (UniProt P29477); test: Inhibition of iNOS in Mus musculus (mouse) RAW264.7 cells assessed as inhibition of LPS-induced nitrite production up to 25 ug/ml incubated for 30 min prior to LPS challenge measured after 24 hr by Griess assay relative to vehicle-treated control; assay type: cell-based
T1 sequence (whole entry): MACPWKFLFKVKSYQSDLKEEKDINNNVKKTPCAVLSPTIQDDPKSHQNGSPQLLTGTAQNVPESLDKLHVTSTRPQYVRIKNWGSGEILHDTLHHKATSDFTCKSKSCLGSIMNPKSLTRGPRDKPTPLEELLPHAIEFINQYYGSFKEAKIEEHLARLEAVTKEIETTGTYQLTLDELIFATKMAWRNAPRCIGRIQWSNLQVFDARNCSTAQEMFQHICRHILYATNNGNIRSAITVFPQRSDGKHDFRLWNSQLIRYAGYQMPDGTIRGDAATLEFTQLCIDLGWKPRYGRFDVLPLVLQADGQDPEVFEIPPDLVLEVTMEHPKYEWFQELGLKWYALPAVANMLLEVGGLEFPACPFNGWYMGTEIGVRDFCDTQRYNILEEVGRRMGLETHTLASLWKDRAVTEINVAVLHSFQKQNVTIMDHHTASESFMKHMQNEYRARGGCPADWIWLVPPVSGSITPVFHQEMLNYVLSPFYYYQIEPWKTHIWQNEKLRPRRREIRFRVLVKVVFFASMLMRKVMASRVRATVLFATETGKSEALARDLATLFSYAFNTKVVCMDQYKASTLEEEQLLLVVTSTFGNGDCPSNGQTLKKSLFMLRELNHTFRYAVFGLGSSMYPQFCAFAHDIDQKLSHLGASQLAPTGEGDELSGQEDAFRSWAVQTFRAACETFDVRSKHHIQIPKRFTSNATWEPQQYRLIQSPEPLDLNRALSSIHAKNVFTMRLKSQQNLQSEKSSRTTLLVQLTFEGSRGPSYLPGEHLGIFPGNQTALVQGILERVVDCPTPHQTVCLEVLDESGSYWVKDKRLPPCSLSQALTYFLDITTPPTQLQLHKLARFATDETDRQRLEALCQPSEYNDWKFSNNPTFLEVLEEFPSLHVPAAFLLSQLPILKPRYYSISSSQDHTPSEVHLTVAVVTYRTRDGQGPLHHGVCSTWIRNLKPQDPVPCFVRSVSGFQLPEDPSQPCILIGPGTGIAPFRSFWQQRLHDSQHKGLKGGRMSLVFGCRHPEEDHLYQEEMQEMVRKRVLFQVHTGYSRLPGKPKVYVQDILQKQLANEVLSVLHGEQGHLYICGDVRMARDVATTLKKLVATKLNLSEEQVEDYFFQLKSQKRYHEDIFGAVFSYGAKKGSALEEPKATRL

[10] = tested on: Nakaseomyces glabratus; test: Antifungal activity against Candida glabrata clinical isolate after 24 hr by NCCLS broth microdilution method; assay type: functional
[11] = Cytotoxicity against Sus scrofa (pig) LLC-PK11 cells assessed as cell viability up to 25 ug/ml after 48 hr by neutral red assay; assay type: cell-based; details: llc-pk11, 48 h
[12] = tested on: RAW264.7; test: Cytotoxicity against Mus musculus (mouse) RAW264.7 cells up to 25 ug/ml; assay type: cell-based
[13] = tested on: Cyberlindnera jadinii; test: Antifungal activity against Cyberlindnera jadinii NRRL Y-900 after 24 hr by NCCLS broth microdilution method; assay type: functional; details: Williopsis jadinii, NRRL Y-900, 24 h
[14] = tested on: HL-60; test: Cytotoxicity against Homo sapiens (human) HL60 cells; assay type: cell-based
[15] = tested on: Candida parapsilosis; test: Antifungal activity against Candida parapsilosis NRRL Y-12696 after 24 hr by NCCLS broth microdilution method; assay type: functional; details: Lodderomyces parapsilosis, NRRL Y-12696, 24 h
[16] = tested on: SK-MEL; test: Cytotoxicity against Homo sapiens (human) SK-MEL cells assessed as cell viability up to 25 ug/ml after 48 hr by neutral red assay; assay type: functional, cell-based
[17] = tested on: Candida tropicalis; test: Antifungal activity against Candida tropicalis NRRL Y-12968 after 24 hr by NCCLS broth microdilution method; assay type: functional; details: NRRL Y-12968, 24 h
[18] = tested on: Candida albicans; test: Antifungal activity against Candida albicans NRRL Y-12983 after 24 hr by NCCLS broth microdilution method; assay type: functional; details: NRRL Y-12983, 24 h
[19] = tested on: Pichia kudriavzevii; test: Antifungal activity against Pichia kudriavzevii NRRL Y-7179 after 24 hr by NCCLS broth microdilution method; assay type: functional; details: NRRL Y-7179, 24 h
[20] = tested on: HL-60; test: Antioxidant activity in PMA-stimulated Homo sapiens (human) HL60 cells assessed as inhibition of intracellular ROS generation incubated for 30 min prior to PMA stimulation measured after 30 min by DCFH-DA assay; assay type: functional, cell-based
[21] = tested on: Candida tropicalis; test: Antifungal activity against Candida tropicalis NRRL Y-12968 at 2000 ug/ml by agar diffusion method; assay type: functional; details: read-out: IZ
[22] = target: T2, Nitric oxide synthase, inducible (Mus musculus, UniProt P29477); test: Inhibition of iNOS in Mus musculus (mouse) RAW264.7 cells assessed as inhibition of LPS-induced nitrite production incubated for 30 min prior to LPS challenge measured after 24 hr by Griess assay; assay type: cell-based
T2 sequence (P29477 whole entry): T1 sequence (whole entry)

[23] = tested on: HL-60; test: Cytotoxicity against Homo sapiens (human) HL60 cells up to 25 ug/ml; assay type: cell-based
[24] = tested on: HL-60; test: Antioxidant activity in PMA-stimulated Homo sapiens (human) HL60 cells assessed as inhibition of intracellular ROS generation up to 25 ug/ml incubated for 30 min prior to PMA stimulation measured after 30 min by DCFH-DA assay relative to vehicle-treated control; assay type: functional, cell-based
[25] = tested on: Candida albicans; test: Antifungal activity against Candida albicans clinical isolate after 24 hr by NCCLS broth microdilution method; assay type: functional
[26] = tested on: Colletotrichum fragariae; test: Antifungal activity against Colletotrichum fragariae at 0.3 to 30 uM after 48 to 72 hr by broth microdilution method; assay type: functional, organism-based
[27] = tested on: Botrytis cinerea; test: Antifungal activity against Botryotinia fuckeliana at 0.3 to 30 uM after 48 to 72 hr by broth microdilution method; assay type: functional, organism-based

Transcription factor Sp1, sequence (P08047 whole entry): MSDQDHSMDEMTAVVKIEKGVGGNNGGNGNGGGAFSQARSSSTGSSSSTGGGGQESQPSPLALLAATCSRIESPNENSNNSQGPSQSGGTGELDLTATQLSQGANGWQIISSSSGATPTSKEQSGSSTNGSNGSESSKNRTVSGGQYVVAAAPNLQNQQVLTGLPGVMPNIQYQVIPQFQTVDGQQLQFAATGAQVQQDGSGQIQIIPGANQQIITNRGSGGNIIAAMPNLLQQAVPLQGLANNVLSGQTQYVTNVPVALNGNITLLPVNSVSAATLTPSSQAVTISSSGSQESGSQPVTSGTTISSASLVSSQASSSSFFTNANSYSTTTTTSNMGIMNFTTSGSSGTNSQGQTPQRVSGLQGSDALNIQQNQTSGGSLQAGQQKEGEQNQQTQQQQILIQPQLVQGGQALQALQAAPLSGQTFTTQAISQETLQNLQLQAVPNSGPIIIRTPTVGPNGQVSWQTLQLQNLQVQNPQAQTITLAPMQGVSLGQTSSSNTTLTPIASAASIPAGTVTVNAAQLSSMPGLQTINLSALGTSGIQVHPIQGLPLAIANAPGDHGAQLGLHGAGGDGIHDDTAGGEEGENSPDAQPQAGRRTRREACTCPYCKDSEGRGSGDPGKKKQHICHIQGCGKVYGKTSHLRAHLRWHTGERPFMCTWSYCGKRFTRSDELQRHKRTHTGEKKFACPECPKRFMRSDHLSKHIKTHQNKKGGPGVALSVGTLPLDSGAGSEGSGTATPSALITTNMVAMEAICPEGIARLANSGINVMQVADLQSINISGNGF

## COc1ccc(/C=N/NC(=O)c2ccc(F)cc2)cc1
[1]
  inhibition (INH): Not Active
[2]
  Activity: inactive
[3]
  inhibition: inactive
[4]
  Activity: inactive
[5]
  Activity: inactive
[6]
  MIC: 500 µg/mL (≈ 1840 µM)
[7]
  Activity: Not Active
[8]
  zone of inhibition at 2000 µg/mL: 9 mm
[9]
  inhibition: inactive
[10]
  MIC: 250 µg/mL (≈ 918 µM)
[11]
  Activity: Not Active
[12]
  Activity: Non-toxic
[13]
  MIC: 500 µg/mL (≈ 1840 µM)
[14]
  IC50: 20 µg/mL (≈ 73.5 µM)
[15]
  MIC: 500 µg/mL (≈ 1840 µM)
[16]
  Activity: inactive
[17]
  MIC: 1000 µg/mL (≈ 3670 µM)
[18]
  MIC: 500 µg/mL (≈ 1840 µM)
[19]
  MIC: 500 µg/mL (≈ 1840 µM)
[20]
  IC50: 2.5 µg/mL (≈ 9.18 µM)
[21]
  zone of inhibition at 2000 µg/mL: 9 mm

## Cc1c(C)c2c(c(C)c1O)CCC(C)(C(=O)O)O2 (configuration not stated) [TROLOX]
[20]
  IC50: 0.3 µg/mL (≈ 1.2 µM)

## CC(=O)N1N=C(c2ccc(F)cc2)OC1c1ccc(N(C)C)cc1 (configuration not stated)
[1]
  inhibition (INH): Not Active
[2]
  Activity: inactive
[3]
  inhibition: inactive
[22]
  IC50: 61.1 µM
[23]
  Activity: Non-toxic
[4]
  Activity: inactive
[5]
  Activity: inactive
[6]
  MIC: 500 µg/mL (≈ 1530 µM)
[7]
  Activity: Not Active
[8]
  zone of inhibition at 2000 µg/mL: 9 mm
[10]
  MIC: 500 µg/mL (≈ 1530 µM)
[24]
  inhibition: inactive
[25]
  MIC: 250 µg/mL (≈ 764 µM)
[11]
  Activity: Not Active
[12]
  Activity: Non-toxic
[26]
  Activity: inactive
[13]
  MIC: 500 µg/mL (≈ 1530 µM)
[15]
  MIC: 1000 µg/mL (≈ 3050 µM)
[16]
  Activity: inactive
[27]
  Activity: inactive
[17]
  MIC: 500 µg/mL (≈ 1530 µM)
[18]
  MIC: 500 µg/mL (≈ 1530 µM)
[19]
  MIC: 500 µg/mL (≈ 1530 µM)
[21]
  zone of inhibition at 2000 µg/mL: 9 mm

## CC(=O)N1N=C(c2ccc(F)cc2)OC1c1ccccc1 (configuration not stated)
[1]
  inhibition (INH): Not Active
[2]
  Activity: inactive
[3]
  inhibition: inactive
[22]
  IC50: > 87.9 µM
[4]
  Activity: inactive
[5]
  Activity: inactive
[6]
  MIC: 1000 µg/mL (≈ 3520 µM)
[7]
  Activity: Not Active
[8]
  zone of inhibition at 2000 µg/mL: 9 mm
[10]
  MIC: 1000 µg/mL (≈ 3520 µM)
[24]
  inhibition: inactive
[25]
  MIC: 500 µg/mL (≈ 1760 µM)
[11]
  Activity: Not Active
[12]
  Activity: Non-toxic
[26]
  Activity: inactive
[13]
  MIC: 1000 µg/mL (≈ 3520 µM)
[14]
  IC50: 31.3 µg/mL (≈ 110 µM)
[15]
  MIC: 1000 µg/mL (≈ 3520 µM)
[16]
  Activity: inactive
[27]
  Activity: inactive
[17]
  MIC: 1000 µg/mL (≈ 3520 µM)
[18]
  MIC: 500 µg/mL (≈ 1760 µM)
[19]
  MIC: 1000 µg/mL (≈ 3520 µM)
[21]
  zone of inhibition at 2000 µg/mL: 9 mm

## COc1ccc(/C=N/NC(=O)c2ccc(F)cc2)cc1O
[1]
  inhibition (INH): Not Active
[2]
  Activity: inactive
[3]
  inhibition: inactive
[22]
  IC50: 76.3 µM
[23]
  Activity: Non-toxic
[4]
  Activity: inactive
[5]
  Activity: inactive
[6]
  MIC: 500 µg/mL (≈ 1730 µM)
[7]
  Activity: Not Active
[8]
  zone of inhibition at 2000 µg/mL: 9 mm
[10]
  MIC: 250 µg/mL (≈ 867 µM)
[11]
  Activity: Not Active
[12]
  Activity: Non-toxic
[13]
  MIC: 500 µg/mL (≈ 1730 µM)
[15]
  MIC: 500 µg/mL (≈ 1730 µM)
[16]
  Activity: inactive
[17]
  MIC: 250 µg/mL (≈ 867 µM)
[18]
  MIC: 500 µg/mL (≈ 1730 µM)
[19]
  MIC: 500 µg/mL (≈ 1730 µM)
[20]
  IC50: 0.9 µg/mL (≈ 3.12 µM)
[21]
  zone of inhibition at 2000 µg/mL: 9 mm

## CN(C)c1ccc(/C=N/NC(=O)c2ccc(F)cc2)cc1
[1]
  inhibition (INH): Not Active
[2]
  Activity: inactive
[3]
  inhibition: inactive
[4]
  Activity: inactive
[5]
  Activity: inactive
[6]
  MIC: 500 µg/mL (≈ 1750 µM)
[7]
  Activity: Not Active
[8]
  zone of inhibition at 2000 µg/mL: 9 mm
[9]
  inhibition: inactive
[10]
  MIC: 125 µg/mL (≈ 438 µM)
[11]
  Activity: Not Active
[12]
  Activity: Non-toxic
[13]
  MIC: 500 µg/mL (≈ 1750 µM)
[14]
  IC50: > 31.2 µg/mL
[15]
  MIC: 500 µg/mL (≈ 1750 µM)
[16]
  Activity: inactive
[17]
  MIC: 500 µg/mL (≈ 1750 µM)
[18]
  MIC: 500 µg/mL (≈ 1750 µM)
[19]
  MIC: 500 µg/mL (≈ 1750 µM)
[20]
  IC50: 23 µg/mL (≈ 80.6 µM)
[21]
  zone of inhibition at 2000 µg/mL: 9 mm
